SMILES strings stand for the structures. ≈ marks a conversion by molar mass, not a printed value.

The conditions of this data set: buffer; pH 7.4; 200.0 µM.
`COc1ccc(CCNC(=O)CCc2nc3ccccc3[nH]2)cc1OC`: the solubility (kinetic) (commonly solubility judged after dilution from a stock solution rather than from solid) is greater than 0.053 mg/mL.
Molecule `O=C(Nc1ccccc1)C1CCCN1C(=O)NCc1ccccc1` (stereo not drawn) showed a solubility (kinetic) of 0.022 mg/mL (≈ 68 µM).
The figure for `Oc1cc2c(cc1CN1CCN(c3ncccn3)CC1)OCO2` is 0.0172 mg/mL (≈ 54.7 µM); for `CC(OC(=O)c1cccc(N(C)C)c1)C(=O)N1CCc2ccccc2C1` (stereo not drawn) it is 0.0373 mg/mL (≈ 106 µM); for `CCC12CN3CCN(CC(C3)/C1=N\NC(=O)c1ccc(F)cc1)C2` it is greater than 0.0496 mg/mL.
The figure for `CC(C)CNC(=O)c1ccc2c(c1)C(=O)N(C1CCCCC1)C2=O` is 0.0044 mg/mL (≈ 13.4 µM); for `CSc1nc2ccc(NC(=O)COc3ccccc3F)cc2s1` it is 0.0022 mg/mL (≈ 6.31 µM); for `COc1ccc(C2=NOC(COc3ccc([N+](=O)[O-])cc3)C2)cc1` (stereo not drawn) it is less than 0.0004 mg/mL.
The figure for `CCCCCCCOc1ccc(C(=O)Nc2cccnc2)cc1` is less than 0.0003 mg/mL; for `CCCc1cc(=O)[nH]c(SCC(=O)N2CCC(C)CC2)n1` it is greater than 0.0464 mg/mL.
As for `CCNc1nc(NC(C)CC)nc(ON=C(C)C)n1` (stereo not drawn), the solubility (kinetic) is greater than 0.04 mg/mL.
The figure for `COC(=O)C1=C(C)Nc2nc3ccccc3n2C1c1ccccc1F` (stereo not drawn) is 0.0003 mg/mL (≈ 0.889 µM); for `COc1cccc(NC(=O)COC(=O)c2c(C)noc2C)c1` it is greater than 0.0456 mg/mL.
Under `Cc1ccc(NC(=O)c2cnccn2)cc1S(=O)(=O)N1CCCCCC1` stands 0.0054 mg/mL (≈ 14.4 µM).
The figure for `Cc1ccc(NC(=O)C2CCC(N3C(=O)C4CCCCC4C3=O)CC2)cc1` (stereo not drawn) is 0.0522 mg/mL (≈ 142 µM); for `COC(=O)c1ccc(S(=O)(=O)N2CCOCC2)o1` it is greater than 0.0413 mg/mL.
In turn, `O=C1CC2(CCN(C(=O)c3ccc(F)c(F)c3)CC2)Oc2ccccc21` came in with a kinetic solubility greater than 0.0536 mg/mL.
Under `Cc1ccc(OCC(=O)N2CCCCCCC2)cc1` stands greater than 0.0392 mg/mL; under `O=C(OCCN1C(=O)c2ccccc2C1=O)Oc1ccccc1`, 0.0371 mg/mL (≈ 119 µM).
The figure for `O=c1c2ccccc2cnn1Cc1n[nH]c(=S)n1-c1ccccc1F` is greater than 0.053 mg/mL; for `CCOC(=O)CCNC(=O)N1CCCC(CNS(=O)(=O)c2cccs2)C1` (stereo not drawn) it is greater than 0.0605 mg/mL.
Under `Cn1cccc1C(=O)OCC(=O)Nc1sccc1C#N` stands 0.0042 mg/mL (≈ 14.5 µM); under `CCC1CCCCN1C(=O)COc1ccc2c(c1)OCO2` (stereo not drawn), greater than 0.0437 mg/mL; under `CCOc1ccc(C2/C(=C(/O)c3ccc4c(c3)CC(C)O4)C(=O)C(=O)N2CC2CCCO2)cc1` (stereo not drawn), 0.0618 mg/mL (≈ 133 µM).
The molecule `Cc1cc(C)c(C)c(OCCN2CCOCC2)c1` came in with a solubility (kinetic) of 0.0273 mg/mL (≈ 109 µM).
Under `Cc1cc(C)nc(SCC(=O)NC(=O)c2ccccc2O)n1` stands greater than 0.0476 mg/mL; under `CC(=O)Nc1ccc(NS(=O)(=O)c2ccc(Cl)s2)cc1`, greater than 0.0496 mg/mL.
Under `COc1cccc2c1OC1(CCN(C(C)C)CC1)N1N=C(c3cccnc3)CC21` (stereo not drawn) stands greater than 0.0589 mg/mL; under `CNc1nc2c(c(=O)[nH]c(=O)n2C)n1CCCc1ccccc1`, greater than 0.047 mg/mL; under `C#CC(CCN1CCCCC1)(OC)c1ccccc1.Cl` (stereo not drawn), 0.0272 mg/mL.
The figure for `CCOC(=O)C1=C(C)N(CC(C)C)C(=O)/C1=C\c1cccs1` is less than 0.0007 mg/mL; for `CC(NS(=O)(=O)c1ccc2c(c1)CC(=O)N2C)c1ccccc1` (stereo not drawn) it is greater than 0.0496 mg/mL.
In turn, `O=C(NCCN1CCNCC1)c1ccccc1O` gave a solubility (kinetic) greater than 0.0374 mg/mL.
Under `C=CCN1C(=O)/C(=C/c2ccsc2)SC1=S` stands less than 0.0006 mg/mL; under `CC1(C)CC2(CCO1)OC(=O)CC2C(=O)Nc1ccc(Cl)cc1[N+](=O)[O-]` (stereo not drawn), greater than 0.0574 mg/mL; under `O=C(/C=C/c1cccc([N+](=O)[O-])c1)OCC1CCCO1` (stereo not drawn), 0.0344 mg/mL (≈ 124 µM).
Under `OCCN1CCN(c2nc(-c3ccccc3O)nc3ccccc23)CC1` stands 0.0378 mg/mL (≈ 108 µM); under `CCCCS(=O)(=O)N1CCC(C(=O)NCC2CCCO2)CC1` (stereo not drawn), 0.046 mg/mL (≈ 138 µM).
Under `O=C(/C=C/c1ccccc1Cl)OCC(=O)N1CCCC1` stands greater than 0.0441 mg/mL; under `CC(=O)c1ccccc1OCC(O)Cn1ccnc1` (stereo not drawn), 0.0382 mg/mL (≈ 147 µM); under `CCCc1cc(NCCCN(C)C)n2c(nc3ccccc32)c1C#N`, 0.0405 mg/mL (≈ 121 µM).
`Cc1cc(C)c(OCC(=O)Nc2nc3ccccc3[nH]2)c(C)c1` came in with a solubility (kinetic) of 0.0003 mg/mL (≈ 0.97 µM).
The figure for `CC(C)C(=O)Nc1ccc2oc(=O)ccc2c1` is 0.0335 mg/mL (≈ 145 µM); for `O=C(Nc1cccc(O)c1)C1CC(c2c(F)cccc2Cl)=NO1` (stereo not drawn) it is 0.0295 mg/mL (≈ 88.1 µM).
As for `CC(=O)Oc1ccc(-c2cccc(C(=O)N3CCCCC3)c2)cc1`, the solubility (kinetic) was 0.0408 mg/mL (≈ 126 µM).
Under `Cc1ccc(NC(=S)Nc2cccc3ccccc23)cc1` stands 0.0015 mg/mL (≈ 5.13 µM); under `O=C(COC(=O)CCC(=O)c1ccc(F)cc1)Nc1ccc(Cl)cn1`, 0.0211 mg/mL (≈ 57.8 µM).
The figure for `Cc1noc2ncnc(Oc3ccccc3Cl)c12` is 0.028 mg/mL (≈ 107 µM).
Under `Cc1ccc2ncccc2c1N` stands greater than 0.0237 mg/mL.
`CC(=O)Nc1ccc(S(=O)(=O)c2cc(O)ccc2O)cc1` yielded a solubility (kinetic) greater than 0.0461 mg/mL.
With `CC(=O)c1sc(NC(=O)c2ccccc2)nc1-c1ccccc1`, the kinetic solubility was less than 0.0003 mg/mL.
Under `O=C(Nc1ccccc1N1CCCCC1)c1ccc(Cl)cc1` stands 0.0015 mg/mL (≈ 4.76 µM).
Under `CC(=O)Nc1ccc(Nc2ccccc2)cc1` stands greater than 0.0339 mg/mL; under `N#CC1=C(N)Oc2c(ccc3cccnc23)C1c1ccncc1` (stereo not drawn), 0.0408 mg/mL (≈ 136 µM); under `Cc1ccnc(NC(=O)c2cccc(S(=O)(=O)N3CCCC3)c2)c1`, 0.0431 mg/mL (≈ 125 µM).
In turn, `CCc1ccc(NC(=O)C2CCCN2C(=O)NC2CCCCC2)cc1` (stereo not drawn) came in with a solubility (kinetic) of 0.0011 mg/mL (≈ 3.2 µM).
`O=C(OCC(=O)N1CCN(c2ccc(F)cc2)CC1)c1cnc2ccccc2n1` registered a kinetic solubility of 0.0195 mg/mL (≈ 49.4 µM).
Under `Cn1c(O)c(/C=C2/C=CC=N2)c(=O)[nH]c1=O` stands greater than 0.0329 mg/mL; under `OC1CCN(CC(O)C(F)(F)F)CC1` (stereo not drawn), greater than 0.032 mg/mL.
Under `CCN(c1cccc(C)c1)S(=O)(=O)c1ccc2c(c1)oc(=O)n2C` stands 0.0027 mg/mL (≈ 7.79 µM).
`CCN1C(=O)CCCc2ccccc21` registered a solubility (kinetic) greater than 0.0284 mg/mL.
The figure for `CN1CCN(c2cc3c(cc2F)c(=O)c(C(=O)O)cn3CCF)CC1` is greater than 0.0527 mg/mL; for `COC(=O)c1sccc1NC(=O)Nc1cccc(C(C)=O)c1` it is 0.0191 mg/mL (≈ 60 µM); for `COc1ccc(-c2csc3nc(-c4ccccc4F)oc(=O)c23)cc1` it is less than 0.0008 mg/mL.
Under `Nc1[nH]c(=O)[nH]c(=O)c1N=Nc1ccc(C(=O)O)cc1` stands greater than 0.0413 mg/mL; under `CCCCCc1ccc(S(=O)(=O)Nc2cc(C)ccn2)cc1`, less than 0.0003 mg/mL; under `O=C(CCc1nnc(-c2ccccc2)o1)NC1CCCCC1`, greater than 0.0449 mg/mL.
The figure for `Cc1ccc(C(=O)NCC(=O)Nc2ccncc2)cc1` is greater than 0.0404 mg/mL; for `CCOc1ccc(NS(=O)(=O)c2csc(C(N)=O)c2)cc1` it is 0.046 mg/mL (≈ 141 µM).
As for `COc1ccc(C(=O)Nc2cccc(S(=O)(=O)NC3=NCCC3)c2)cc1OC`, the kinetic solubility is 0.0404 mg/mL (≈ 100 µM).
`Cc1ccc(NC(=O)NCC(c2ccccc2)N(C)C)cc1` (stereo not drawn) showed a kinetic solubility greater than 0.0446 mg/mL.
Under `O=C(COC(=O)COc1ccc(Br)cc1)NCc1ccc2c(c1)OCO2` stands 0.0084 mg/mL (≈ 19.9 µM).
Turning to `O=S(=O)(c1c(Cl)sc(Cl)c1Br)N1CCCC1`, the kinetic solubility is 0.0044 mg/mL (≈ 12.1 µM).
Under `CC(CCc1ccccc1)NC(=O)c1cnc(Cl)c(Cl)c1` (stereo not drawn) stands 0.0055 mg/mL (≈ 17 µM); under `CN(C)c1ccc2nsnc2c1[N+](=O)[O-]`, 0.0334 mg/mL (≈ 149 µM); under `COc1ccc(C(=O)Nc2ccc3ccccc3c2)cc1`, less than 0.0006 mg/mL.
Under `O=c1[nH]c(=S)n(-c2ccccc2)c(O)c1C=NCc1ccccn1` stands greater than 0.0508 mg/mL; under `CC(=O)N(CCc1cccc(C)c1)Cc1cc2cc(C)ccc2[nH]c1=O`, 0.0011 mg/mL (≈ 3.16 µM); under `O=C1CCCc2ccccc2N1Cc1ccc(F)cc1`, 0.03 mg/mL (≈ 111 µM).
In turn, `CC(=O)Oc1ccccc1C(=O)NC(C)CCc1ccccc1` (stereo not drawn) returned a kinetic solubility greater than 0.0467 mg/mL.
As for `CC1=C(C(=O)OC(C)(C)C)C(c2cccc3ccccc23)NC(=O)N1` (stereo not drawn), the kinetic solubility was less than 0.0004 mg/mL.
Under `CCC(CC)C(=O)N1CCN(Cc2nc3ccccc3c(=O)[nH]2)CC1` stands greater than 0.0514 mg/mL; under `CCOc1ccc(S(=O)(=O)/N=C(/Nc2ccc(S(N)(=O)=O)cc2)c2ccccc2)cc1`, 0.0022 mg/mL (≈ 4.79 µM); under `COc1ccccc1N1CC(C)(C)C(=O)N(C(=O)c2ccc(C)cc2)C1=S`, 0.0021 mg/mL (≈ 5.49 µM).
Under `Cc1cc(C)c(NC(=O)C2=COCCO2)c(C)c1` stands greater than 0.0371 mg/mL; under `CCc1ccccc1NC(=O)NCc1cccnc1`, greater than 0.0383 mg/mL; under `CC(C)(C)S(=O)(=O)c1ccccc1-c1noc(-c2ccccc2)c1C(N)=O`, greater than 0.0577 mg/mL.
Under `O=C(C(=S)N1CCOCC1)c1c[nH]c2ccccc12` stands greater than 0.0412 mg/mL; under `CC(=O)O.Fc1ccc(NC(=S)Nc2cccnc2)cc1`, greater than 0.0461 mg/mL.
In turn, `CC1(C)Cc2nc3sc4c(SCC(=O)O)ncnc4c3cc2CO1` registered a solubility (kinetic) of 0.0532 mg/mL (≈ 147 µM).
Under `NC(=O)C1CCCc2c1n(Cc1ccccc1)c1ccccc21` (stereo not drawn) stands 0.0223 mg/mL (≈ 73.3 µM); under `O=C(CNC(=O)c1ccccc1F)OCc1nc2ccccc2s1`, 0.0486 mg/mL (≈ 141 µM).
The figure for `COc1ccccc1CNC(=O)CS(=O)(=O)c1ccc(C)cc1` is greater than 0.05 mg/mL; for `Cc1cccc(C)c1NC1=NCCCCC1` it is greater than 0.0324 mg/mL; for `COc1ccc(CCNC(=O)c2ccc([N+](=O)[O-])cc2)cc1` it is 0.0053 mg/mL (≈ 17.6 µM).
Under `CC1CN(C(=O)CSc2nc(N)cc(N)n2)CC(C)O1` (stereo not drawn) stands greater than 0.0446 mg/mL.
Molecule `O=C1NCCn2ccc(=O)cc21` displayed a kinetic solubility of 0.0216 mg/mL (≈ 132 µM).
The figure for `Cc1cc(Br)c(NC(=O)COC(=O)C2CCCCC2)c(Br)c1` is 0.0101 mg/mL (≈ 23.3 µM); for `COc1cccc(C(=O)NCc2ccc3c(c2)OCO3)c1` it is 0.037 mg/mL (≈ 130 µM).
Under `COc1cccc2c(C)cc(N3CCCCCC3)nc12` stands 0.0332 mg/mL (≈ 123 µM); under `CN(CC(=O)Nc1ccccc1Br)C(=O)CN1CCN(Cc2cccc(Cl)c2)CC1`, greater than 0.0741 mg/mL.
The figure for `Cc1ccc2c(C(=O)CN3CCCC(C)C3)c(C)[nH]c2c1` (stereo not drawn) is 0.0393 mg/mL (≈ 138 µM).
On to `Nc1ccc(S(=O)(=O)NC2=NCCCCC2)cc1N`, for which the kinetic solubility is greater than 0.0424 mg/mL.

Source of the values: PubChem BioAssay AID1996.
